Laboratory results from patent US9802942B2, “Substituted 4-methyl-pyrrolo[1,2-A]pyrimidine-8-carboxamide compounds and uses thereof for modulating glucocerebrosidase activity” (Northwestern University, priority 2015, dated 2017).
Read-outs that look alike come from different tables or passages of the source.

Biological target: T1, glucocerebrosidase (GCase), recombinant wt. enzyme velaglucerase alfa (Homo sapiens, UniProt P04062)
T1 construct: purchased Shire Human Genetic Therapies, Inc. Vpriv
T1 sequence (P04062 40-536): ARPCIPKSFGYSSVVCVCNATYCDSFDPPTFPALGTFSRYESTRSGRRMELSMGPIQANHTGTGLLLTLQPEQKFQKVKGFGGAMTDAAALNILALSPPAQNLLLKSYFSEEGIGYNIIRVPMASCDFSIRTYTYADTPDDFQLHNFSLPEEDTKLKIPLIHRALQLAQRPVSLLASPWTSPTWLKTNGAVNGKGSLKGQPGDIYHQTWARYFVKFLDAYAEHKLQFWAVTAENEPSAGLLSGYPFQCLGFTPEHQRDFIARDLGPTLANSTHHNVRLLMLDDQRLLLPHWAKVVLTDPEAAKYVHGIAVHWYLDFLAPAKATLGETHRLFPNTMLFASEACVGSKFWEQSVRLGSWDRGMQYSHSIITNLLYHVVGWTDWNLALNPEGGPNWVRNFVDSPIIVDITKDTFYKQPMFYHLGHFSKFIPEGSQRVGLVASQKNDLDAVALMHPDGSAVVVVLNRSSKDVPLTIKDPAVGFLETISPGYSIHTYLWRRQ
Experiment: Glucocerebrosidase activity assay with blue substrate (4MU-Glc)
Format: biochemical
Method: The compounds in DMSO solution 0.5 μL/well were transferred to a black 96-well plate (the final titration was 24 nM to 50 μM, 12 concentrations, 2 times dilution). 33.5 μL enzyme solution (7.5 nM final concentration) was transferred to the wells. After 5 min of incubation at room temperature, the enzyme reaction was initiated by the addition of 33 μL/well blue substrate or 66.5 μL/well red substrate. Final concentrations of the blue substrate (4MU-Glc) and red substrate (Res-Glc) were 1.5 mM and 30 μM, respectively. The red substrate reaction was measured in the Biotek Synergy H1 multi-mode plate reader with Ex=573 nm and Em=610 nm at 37° C. every 20 sec for 30 min. The blue substrate reaction was terminated by the addition of 33 μL/well stop solution (1 M NaOH and 1 M glycine mixture, pH 10) after 30 min of incubation at 37° C. The fluorescence was then measured in the plate reader at Ex=365 nm and Em=440 nm.
The recombinant wt. enzyme velaglucerase alfa (Vpriv®, Shire Human Genetic Therapies, Inc.) was obtained from residual solution after clinical infusions. The GCase activity assay buffer was composed of 50 mM citric acid, 176 mM K2HPO4, and 0.01% Tween-20 at pH 5.9. A solution of 1 M sodium hydroxide and 1 M glycine was used as the stop solution for the 4MU-β-glc substrate assay.
The compounds in DMSO solution 0.5 μL/well was transferred to a black 96-well plate (the final titration was 24 nM to 50 μM, 12 concentrations). 33.5 μL enzyme solution (7.5 nM final concentration) was transferred to the wells. After 5 min of incubation at room temperature, the enzyme reaction was initiated by the addition of 33 μL/well 4MU-Glc substrate or 66.5 μL/well red substrate. Final concentrations of the 4MU-Glc substrate and Res-Glc substrate were 1.5 mM and 30 μM, respectively. The red substrate reaction was measured in the Biotek Synergy H1 multi-mode plate reader with Ex=573 nm and Em=610 nm at 37° C. in every 20 seconds for 30 min. The 4MU-Glc substrate reaction was terminated by the addition of 33 μL/well stop solution (1 M NaOH and 1 M glycine mixture, pH 10) after 30 min of incubation at 37° C. The fluorescence was then measured in the plate reader with Ex=365 nm and Em=440 nm.

[1] = Table 1, titration 24 nM to 50 μM, substrate not given, read-out: Ac50
[2] = Table 2, values marked activator, read-out: Activity AC50 or IC50

Row | Compound | AC50 [1] | further results
1 | Cc1cc(C)n2ccc(C(=O)NCc3cccnc3Oc3ccccc3)c2n1 [compound 72] | – | activator (word in Activity cell) (Table 2): activator; AC50 [2]: 6130 nM
2 | Cc1cc(C)n2ccc(C(=O)NC3CCN(C(C)C)CC3)c2n1 [compound 34] | 30000 nM | –
3 | Cc1cc(-c2cccnc2)nc2c(C(=O)Nc3ccc(C#CCCCCCCCCC(=O)O)cc3)ccn12 [compound 79] | – | activator (word in Activity cell) (Table 2): activator; AC50 [2]: 3540 nM
4 | Cc1cc(C)n2ccc(C(=O)Nc3ccc(CCN4CCCCC4)cc3)c2n1 [compound 15] | 39800 nM | –
5 | Cc1cc(C)n2ccc(C(=O)Nc3nc4c(C)cccc4s3)c2n1 [compound 43] | 200 nM | –
6 | C#Cc1ccc(NC(=O)c2ccn3c(C)cc(C)nc23)cc1 [compound 1] | 140 nM | –
7 | Cc1cc(C)n2ccc(C(=O)Nc3ccc(N4CCOCC4)cc3)c2n1 [compound 19] | 1410 nM | –
8 | Cc1cc(C)n2ccc(C(=O)Nc3nc4cc(F)ccc4s3)c2n1 [compound 42] | 50200 nM | –
9 | Cc1ccc2nc(NC(=O)c3ccn4c(C)cc(C)nc34)sc2c1 [compound 48] | 200 nM | –
10 | Cc1cc(-c2cccnc2)nc2c(C(=O)Nc3ccc(C#CCCCCCCCCC(=O)ON4C(=O)CCC4=O)cc3)ccn12 [compound 83] | – | activator (word in Activity cell) (Table 2): activator; AC50 [2]: 560 nM
11 | Cc1cc(C)n2ccc(C(=O)Nc3ccc(N4CCC(N(C)C)CC4)cc3)c2n1 [compound 50] | 10000 nM | –
12 | COc1ccc2nc(NC(=O)c3ccn4c(C)cc(C)nc34)sc2c1 [compound 47] | – | Activator / Inhibitor (word in Ac50 cell) (Table 1): Inhibitor
13 | Cc1cc(C)n2ccc(C(=O)Nc3ccc(C(=O)c4ccccc4)cc3)c2n1 [compound 53] | 140 nM | –
14 | Cc1cc(C)n2ccc(C(=O)Nc3nc4ccccc4[nH]3)c2n1 [compound 26] | 1260 nM | –
15 | COC(=O)CCCC#Cc1cccc(NC(=O)c2ccn3c(C)cc(C)nc23)c1 [compound 80] | – | activator (word in Activity cell) (Table 2): activator
16 | COC(=O)CCCCCCCCC#Cc1ccc(NC(=O)c2ccn3c(C)cc(-c4cccnc4)nc23)cc1 [compound 78] | – | activator (word in Activity cell) (Table 2): activator; AC50 [2]: 710 nM
17 | Cc1cc(C)n2ccc(C(=O)Nc3ccc(C#Cc4ccccc4)cc3)c2n1 [compound 38] | 790 nM | –
18 | Cc1cc(C)n2ccc(C(=O)Nc3ccc(I)cc3)c2n1 [compound 73] | – | activator (word in Activity cell) (Table 2): activator; AC50 [2]: 316 nM

Continued, in another order:

Row | AC50 [1] | Compound | further results
19 | 2000 nM | Cc1cc(C)n2ccc(C(=O)Nc3ccc(-c4cn(CCOCCOCCC(=O)NC5CCCCC5)nn4)cc3)c2n1 [compound 69] | –
20 | 15800 nM | Cc1cc(C)n2ccc(C(=O)NCc3cccs3)c2n1 [compound 51] | –
21 | 31600 nM | CCN1CCN(c2ccc(NC(=O)c3ccn4c(C)cc(C)nc34)cc2)CC1 [compound 11] | –
22 | 10000 nM | Cc1cc(C)n2ccc(C(=O)Nc3ccc(-c4cn(CCOCCOCCC(=O)NCCC5CCCN5C)nn4)cc3)c2n1 (centres unmarked) [compound 68] | –
23 | 2510 nM | Cc1cc(C)n2ccc(C(=O)NC3Cc4ccccc4C3)c2n1 [compound 29] | –
24 | 25100 nM | Cc1cc(C)n2ccc(C(=O)Nc3ccncc3)c2n1 [compound 22] | –
25 | 450 nM | Cc1cc(C)n2ccc(C(=O)Nc3cnn4c(C)cc(C)nc34)c2n1 [compound 46] | –
26 | 5010 nM | Cc1cc(C)n2ccc(C(=O)Nc3ccc(N4CCN(Cc5ccccc5)CC4)cc3)c2n1 [compound 12] | –
27 | 3550 nM | Cc1cc(C)n2ccc(C(=O)Nc3ccc(-c4cn(CCOCCOCCC(=O)NC5CCC5)nn4)cc3)c2n1 [compound 70] | –
28 | 450 nM | Cc1cc(C)n2ccc(C(=O)Nc3ccc(-c4cn(CCCCCCCCC(=O)ON5C(=O)CCC5=O)nn4)cc3)c2n1 [compound 62] | Activator / Inhibitor (word in Ac50 cell) (Table 1): Activator
29 | 1780 nM | Cc1cc(C)n2ccc(C(=O)Nc3ccc(-c4cn(CCCCCCC(=O)O)nn4)cc3)c2n1 [compound 58] | Activator / Inhibitor (word in Ac50 cell) (Table 1): Activator
30 | 112000 nM | Cc1cc(C)n2ccc(C(=O)Nc3ccc(CN4CCOCC4)cc3)c2n1 [compound 7] | –
31 | 200 nM | Cc1cc(C)n2ccc(C(=O)Nc3ccc(N=[N+]=[N-])cc3)c2n1 [compound 52] | –
